US20210244712A1, “METHODS FOR TREATING PATIENTS WITH CANCER HAVING DEFECTS IN CYCLIN D REGULATION” (NysnoBio Ireland DAC, priority 2018, published 2021)

Legend:
Assay type in all cases: cell-based
A2780 = test: Senescence quantification (SA-βGal); details: Compound 42 50, 100, or 150 nM, 96 hours, compared to control (DMSO)
Description: (§1) Senescence was quantified in ovarian cell lines A2780, OAW42, and ES-2. Cell lines A2780 has no cyclin D pathway mutations and has wt Rb and Parkin expression. Cell line OAW42 has increased CDK4 and increased CDK6 with wt Rb and Parkin expression. Cell line ES-2 has increased cyclin D and increased mutant […] with wt Rb and Parkin expression.
(§2) Day 1: 96 well plate was seeded with 4000 cells/well and incubated for 24 hours at 37° C.
(§3) Day 2: Compound 42 (50, 100, or 150 nM) or palbociclib (1 μM) as positive control were added to the wells and the plate was incubated for 96 hours at 37° C.
(§4) Day 6: Senescence cells histochemical Staining Kit (Sigma) was used. The growth medium form the cells were aspirated then washed twice with fresh […]. […] 100 μL filtered Fixation Buffer was added per well and the plate was incubated for 6-7 minutes at room temperature. Then, the cells were rinsed 3 times with PBS. 50 μL of the Staining Mixture was added per well and incubated at 37° C. overnight without CO2 (staining is pH dependent). After staining, the Staining Mixture was removed, PBS and Hoechst dye (1 μg/mL) were added. Ten images were taken with Epifluorescence Microscope using the blue filter and 10 images were taken in the brightfield. The images were used to count the total cell number—the positive blue cells were counted in the bright field. The percentage of cells expressing β-galactosidase was calculated.
(§5) Method 1: Mammalian β-Galactosidase Assay Kit (Thermo Scientific) was used. […] The cells were washed once with PBS. 100 μL of the β-Galactosidase Assay Reagent was added to each well and the plate was covered and incubated for 30 minutes at 37° C. without CO2. The absorbance was measured at 405 nm. If no change was observed, the plate was incubated for an extra 30 minutes.
(§6) Method 2: Assay of a portion of the lysate. The cells were washed once with PBS. 50 μL of the M-PER Reagent was added to each well and the plate was incubated at room temperature for […]. 25 μL of lysate was removed and use it for Protein Quantification (BCA). The date was normalize by protein content.

OAW42 = test: Senescence quantification (SA-βGal); details: Compound 42 50, 100, or 150 nM, 96 hours, compared to control (DMSO)
Description: as §1, §2, §3, §4, §5, §6

ES-2 [1] = test: Senescence quantification (SA-βGal); details: Compound 42 50, 100, or 150 nM, 96 hours, compared to control (DMSO)
Description: as §1, §2, §3, §4, §5, §6

ES-2 [2] = test: Cell proliferation assay; details: Homo sapiens
SW626 = test: Cell proliferation assay; details: Homo sapiens; Table 7a; Ovarian (SW626)
cyclin E = test: Western blot of cellular biomarker cyclin E; details: JEKO-1; 500 nM Compound 42; 48 hours; compared to palbociclib 1 μM
Description: Various cancer cells lines were treated with Compound 42 or palbociclib (control) to measure the expression of cyclin D, cyclin E, pRb, and Rb.
Day 1: 6 well plate was seeded with 3×10^5 cells/well with a final volume of 3 mL and incubated for 24 hours at 37° C.
Day 2: The media was removed and Compound 42 (see below for dose) or palbociclib (1 μM) as positive control were added to the wells the desired concentration in cell culture media, giving a final volume of 3 mL per well. The plate was incubated for 24 hours at 37° C. (or desired period).
Day 3: The media was removed from wells and washed ×3 with PBS. 500 μl of trypsin was added to the wells and incubate until cells detach. 500 μl media was added to neutralise trypsin, transferred to 2 ml Eppendorfs, and centrifuged (1500 RPM for 5 minutes). While spinning, the wells were washed with 1 mL PBS to collect any remaining cells. This wash was used to centrifuged cell pellet. After the first spin, the supernatant was discarded and the pellet was washed with PBS collected from the previous step. […] The protein concentration was determined using the BCA assay kit.
Day 4: Western blot analysis was performed. […] The membrane was blocked using 5% non-fat powdered milk* made up in 1×TBS containing 0.1% Tween (TBS-T and incubated for 1 hr with gentle rocking. The observation from the Western blot analysis is quantified in FIGS. 2-7D. […]

SW527 = test: Cell proliferation assay; details: 72 hrs, read-out: Cell Viability: IC50
Method in brief: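 After overnight attachment, cells were exposed for 72 hrs at 37° C. to a range of compound concentrations. Viable cell mass was then estimated by hydrolysis of p-nitrophenol phosphate over 2 hours at pH 5.5, with absorbance compared against vehicle wells.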

Cc1ccccc1C(=O)Nc1nc(NC(=O)c2ccccc2C)n(-c2ccc(OC(F)(F)F)cc2)n1 [Compound 42, N,N′-(1-(4-(trifluoromethoxy)phenyl)-1H-1,2,4-triazole-3,5-diyl)bis(2-methylbenzamide)]
senescence (SA-βGal levels) (A2780): induced senescence
senescence (SA-βGal levels) (OAW42): induced senescence
senescence (SA-βGal levels) (ES-2 [1]): induced senescence
IC50 (ES-2 [2]; Ovarian ES-2, overexpression of Cyclin D, loss of p16 (mutant p53)): 57 nM
EC50 (ES-2 [2]; Table 7a, Ovarian (ES-2)): 42 nM
EC50 (SW626): 334 nM
cyclin E expression (cyclin E): reduction of cyclin E and cyclin D expression

Cc1ccccc1C(=O)Nc1nc(NC(=O)c2ccccc2C)n(-c2ccccc2)n1 [Compound F, 2-methyl-N-[5-[(2-methylbenzoyl)amino]-1-phenyl-1,2,4-triazol-3-yl]benzamide]
IC50 (SW527): 6690 nM
